Source: patent US12037583B2, “Compositions and methods for immunooncology” (Novartis AG, priority 2015, dated 2024)

Tests used:
[1] = tested on: TRAC locus; assay: Genomic editing of the TRAC locus in primary human CD3+ T cells by RNP electroporation (NGS: % indels, % frameshift edits, indel pattern); format: cell-based; conditions: dgRNA/Cas9 RNP by electroporation, target TRAC; for mean FS edit (%): frameshift edits in primary human CD3+ T cells; for mean total % edit: primary human CD3+ T cells, mean of at least 3 experiments;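 for all read-outs here: total edit is the insertion or deletion frequency at TRAC, and the frameshift value is the share of those indels that shift the coding frame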
Description: (§1) FIG. 12: Mean (n≥3) editing of CRISPR systems with dgRNAs as indicated to TRAC in HEK cells (stably expressing Cas9) or primary human CD3+ T cells (delivery of dgRNA:Cas9 RNP by electroporation).
FIG. 33C: Genomic editing of the TRAC locus resulting from human primary T cell electroporation with RNP containing the indicated gRNA targeting the TRAC locus is shown. The frequency of insertions or deletions is indicated (% indels) and the percentage of these edits that result in frameshifting of the coding sequence is shown (% frameshift edits).
Data for each experiment are the average from triplicate PCR products.

[2] = tested on: TRAC; assay: Editing of TRAC by dgRNAs in HEK cells stably expressing Cas9 (NGS); format: cell-based, human; conditions: dgRNA delivered to HEK cells stably expressing Cas9, target TRAC, mean of at least 3 experiments
Description: as §1

[3] = tested on: PDCD1; assay: NGS editing of PDCD1 by dgRNA in HEK cells stably expressing Cas9; format: cell-based, human; conditions: at least 3 experiments;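 note: dgRNA lipofected into Cas9-expressing HEK cells, lysed after 24 h, target amplicon sequenced, editing = reads carrying insertions or deletions as percent of all reads including wild type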

| Substance | mean FS edit (%) [1] | mean total % edit [1] | mean % edit [2] | HEK (NGS) % Editing Mean [3] |
| --- | --- | --- | --- | --- |
| AAAGCUGCCCUUACCUGGGC (chemistry not given here; listed as Homo sapiens) [CR000976] | 1.7% | 1.8% | 2.8% | – |
| AACAAAUGUGUCACAAAGUA (chemistry not given here; listed as Homo sapiens) [CR000966] | 21.0% | 22.0% | 65.2% | – |
| AACGAGAAUCAUCUGCCUGC (chemistry not given here; listed as Homo sapiens) [CR000945] | 2.2% | 2.3% | 32.3% | – |
| AAGGUUCAGAUCAGAAGAGG (chemistry not given here; listed as Homo sapiens) [CR000921] | 11.3% | 12.7% | 58.3% | – |
| ACAAGUGCCCACAGGAAGCC (chemistry not given here; listed as Homo sapiens) [CR000930] | 7.1% | 9.9% | 12.2% | – |
| ACCAACUCACACAUACAGCC (chemistry not given here; listed as Homo sapiens) [CR000949] | 2.5% | 2.5% | 30.2% | – |
| ACCAGAGAUGUCUGUGCAGG (targeting domain within guide RNA, chemistry not given here, further chemistry not given here; listed as Homo sapiens) [CR000935] | – | – | 54.2% | – |
| ACCCGGCCACUUUCAGGAGG (chemistry not given here; listed as Homo sapiens) [CR000989] | 18.2% | 28.2% | 54.5% | – |
| AGAGCAACAGUGCUGUGGCC (chemistry not given here; listed as Homo sapiens) [CR000970] | 9.3% | 10.9% | 13.4% | – |
| AGAGUGAUUAUUAUUUAUUC (chemistry not given here; listed as Homo sapiens) [CR000941] | 7.6% | 9.6% | 33.4% | – |
| AGCAGCUUUCACCUCCUUGG (chemistry not given here; listed as Homo sapiens) [CR001009] | 22.8% | 27.3% | 65.3% | – |
| AGGAAGGAGCGAGGGAGCAC (chemistry not given here; listed as Homo sapiens) [CR000996] | 8.6% | 11.1% | 52.3% | – |
| AGGCUUCUCACCCUGCAGCA (chemistry not given here; listed as Homo sapiens) [CR000923] | 32.7% | 37.3% | 67.4% | – |
| AGUUGGUGGCAUUGCCGGGG (chemistry not given here; listed as Homo sapiens) [CR001015] | 20.4% | 21.8% | 35.9% | – |
| AUAUGUGCAGCUCAGGGUCA (chemistry not given here; listed as Homo sapiens) [CR000937] | 10.8% | 15.8% | 50.9% | – |
| AUCCUCCUCCUGAAAGUGGC (chemistry not given here; listed as Homo sapiens) [CR000987] | 18.2% | 20.6% | 39.6% | – |
| CAAUGCAGAGGAAGGAGCGA (chemistry not given here; listed as Homo sapiens) [CR000997] | 6.4% | 6.7% | 11.6% | – |
| CACACCUCUUGUCUUUGGAA (chemistry not given here; listed as Homo sapiens) [CR000954] | 2.6% | 2.7% | 22.3% | – |
| CACCAAAGCUGCCCUUACCU (chemistry not given here; listed as Homo sapiens) [CR000977] | 35.7% | 44.2% | 80.6% | – |
| CCACUUUCAGGAGGAGGAUU (chemistry not given here; listed as Homo sapiens) [CR000986] | 14.8% | 36.4% | 68.6% | – |
| CCAGGGCAUGCCAUGCUCAC (chemistry not given here; listed as Homo sapiens) [CR000928] | 14.6% | 18.1% | 54.2% | – |
| CCUGUGAGCAUGGCAUGCCC (chemistry not given here; listed as Homo sapiens) [CR000927] | 22.6% | 23.8% | 68.7% | – |

| Substance | mean FS edit (%) [1] | mean total % edit [1] | mean % edit [2] | HEK (NGS) % Editing Mean [3] |
| --- | --- | --- | --- | --- |
| CR000919: dgRNA targeting domain to PDCD1 (guide GGAAAAGAGUGAGACUCACC; targeting domain within dual guide RNA, chemistry not given here, further chemistry not given here; listed as Homo sapiens) | – | – | – | 42% |
| CUACCACCUCUGUGCCCCCC (chemistry not given here; listed as Homo sapiens) [CR001012] | 22.9% | 31.5% | 64.5% | – |
| CUGACAGGUUUUGAAAGUUU (chemistry not given here; listed as Homo sapiens) [CR000981] | 25.1% | 37.6% | 70.0% | – |
| CUGGGGAAGAAGGUGUCUUC (chemistry not given here; listed as Homo sapiens) [CR000973] | 12.4% | 16.2% | 39.7% | – |
| CUUCAAGAGCAACAGUGCUG (chemistry not given here; listed as Homo sapiens) [CR000969] | 20.9% | 24.8% | 34.0% | – |
| GAGAAUCAAAAUCGGUGAAU (chemistry not given here; listed as Homo sapiens) [CR000964] | 23.5% | 27.0% | 51.2% | – |
| GAGGCUUCUCACCCUGCAGC (chemistry not given here; listed as Homo sapiens) [CR000922] | 5.0% | 6.4% | 37.8% | – |
| GAGUUCCCUCUGUUUGGAGA (chemistry not given here; listed as Homo sapiens) [CR001004] | 6.4% | 6.7% | 47.2% | – |
| GCAAUGCAGAGGAAGGAGCG (chemistry not given here; listed as Homo sapiens) [CR000998] | 2.2% | 2.4% | 4.3% | – |
| GCAGCAGGGACCUGUGAGCA (chemistry not given here; listed as Homo sapiens) [CR000926] | 19.9% | 22.5% | 73.0% | – |
| GCAUUGCCGGGGGGGCACAG (chemistry not given here; listed as Homo sapiens) [CR001014] | 24.3% | 27.3% | 52.7% | – |
| GCCUCCUGCACAGACAUCUC (targeting domain within guide RNA, chemistry not given here, further chemistry not given here; listed as Homo sapiens) [CR000936] | – | – | 59.7% | – |
| GCUGUAUGUGUGAGUUGGUG (chemistry not given here; listed as Homo sapiens) [CR000948] | 18.4% | 20.3% | 84.5% | – |
| GCUUUCACCUCCUUGGGGGU (chemistry not given here; listed as Homo sapiens) [CR001008] | 4.5% | 5.1% | 13.6% | – |
| GGAAACACACCUCUUGUCUU (chemistry not given here; listed as Homo sapiens) [CR000953] | 14.4% | 17.7% | 66.0% | – |
| GGUGUCAUAUGUGCAGCUCA (chemistry not given here; listed as Homo sapiens) [CR000938] | 12.5% | 13.9% | 55.0% | – |
| GUAGCAGCUUUCACCUCCUU (chemistry not given here; listed as Homo sapiens) [CR001011] | 10.8% | 13.2% | 64.8% | – |
| GUAGGAGAGUUCCCUCUGUU (chemistry not given here; listed as Homo sapiens) [CR001006] | 10.4% | 13.6% | 56.8% | – |
| UAAACCCGGCCACUUUCAGG (chemistry not given here; listed as Homo sapiens) [CR000990] | 25.3% | 36.1% | 63.7% | – |
| UAAAUAAUAAUCACUCUCAC (chemistry not given here; listed as Homo sapiens) [CR000940] | 14.4% | 22.1% | 55.0% | – |
| UAGCAGCUUUCACCUCCUUG (chemistry not given here; listed as Homo sapiens) [CR001010] | 18.6% | 21.2% | 48.3% | – |
